Data published in patent EP3714904B1, “IMINODIACETIC ACID SUBSTITUTED CYCLODEXTRINS AS POTENTIATORS OF BETA-LACTAM ANTIBIOTICS” (NATIONAL CENTER FOR SCIENTIFIC RESEARCH "DEMOKRITOS" (NCSRD), priority 2019, dated 2020).
Where two headings read alike, the source gives them in different places.

Tests used:
[1] = molecular target: T1, MBL containing crude enzyme preparation (Kpn LA-26 NDM-1) (Klebsiella pneumoniae, UniProt C7C422); test: 1H NMR monitoring of meropenem hydrolysis by MBL crude enzyme preparation; format: biochemical; conditions: meropenem 0.18 mM, absence of β-IDACYD, 6 h incubation
T1 construct: an MBL containing crude enzyme preparation (Kpn LA-26 NDM-1, 485 µL); endogenous in cells; host or cells: Klebsiella pneumoniae clinical strain LA-26 (crude enzyme preparation)

Klebsiella pneumoniae = test: MIC of β-lactams alone or with 50 µM IDACYD against clinical isolates; format: cell-based; conditions: Klebsiella pneumoniae, alone
Procedure: Further the in-vitro inhibitory activity of IDACYDs was tested against highly resistant pathogens. […] Table 2: Collection of clinical isolates used for in-vitro evaluation

Acinetobacter baumannii = test: as above; format: cell-based; conditions: Acinetobacter baumannii, alone
Procedure: (§1) Further the in-vitro inhibitory activity of IDACYDs was tested against highly resistant pathogens. Tables 3, 4 and 5 show the effect of IDACYDs using a collection of 36 highly resistant Gram negative strains (Table 2, Kirby-Bauer disc diffusion method) producing NDM, VIM and IMP type MBLs as well as 6 isolates expressing serine beta-lactamases (ESBLs, AmpCs). […] Clinical isolates co-expressing ESBLs and/or AmpC β-lactamases along with MBLs where re-sensitized to both imipenem and meropenem, as expected. Table 2: Collection of clinical isolates used for in-vitro evaluation

Enterobacter gergoviae = test: as above; format: cell-based; conditions: Pluralibacter gergoviae, alone
Procedure: as §1

Escherichia coli = test: as above; format: cell-based; conditions: Escherichia coli, alone
Procedure: as §1

Proteus mirabilis = test: as above; format: cell-based; conditions: Proteus mirabilis, alone
Procedure: as §1

Providencia stuartii = test: as above; format: cell-based; conditions: Providencia stuartii, alone
Procedure: as §1

Serratia marcescens = test: as above; format: cell-based; conditions: Serratia marcescens, read-out: Meropenem MIC; isolate EUG-815 (VIM, CMY); alone
Procedure: as §1

[2] = tested on: NDM-1 producing K. pneumoniae strain LA26; test: Murine sepsis model: single dose treatment scheme-2; format: in vivo, CD-1 mice; conditions: meropenem monotherapy, single dose 10 mg/kg; within 48 h
Procedure: Example 9. […] Blood samples were collected at 0, 6 and 24 hours after injection of a single dose of antibiotic (4 infected animals for each timepoint), were serially diluted in normal saline (10^-1 to 10^-9) and plated on MH agar plates which were incubated for 16 hours at 37°C for determination of viable organisms. […] The resulting 3.0log10 reduction in the blood bacterial load in the presence of 120 mg/kg of the inhibitor β-IDACYD compared to the antibiotic itself confirmed the high repotentiation abilities of the inhibitor to carbapenems even for suboptimal antibiotic doses. […] Treatment was given in a form of a single shot 2h after infection and blood was drawn 0h, 6h and 24h post treatment initiation. All groups were of n=10. Error bars are indicative of SEM (n=2 replicates).

T1 sequence (C7C422 29-270 limits assumed): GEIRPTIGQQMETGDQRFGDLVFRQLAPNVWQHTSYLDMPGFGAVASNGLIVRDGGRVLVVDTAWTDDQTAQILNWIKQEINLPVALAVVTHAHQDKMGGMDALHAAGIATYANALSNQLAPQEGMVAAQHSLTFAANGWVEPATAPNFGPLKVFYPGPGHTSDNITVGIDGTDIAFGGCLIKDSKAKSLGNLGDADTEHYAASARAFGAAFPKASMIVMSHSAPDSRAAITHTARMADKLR

C[C@@H](O)[C@H]1C(=O)N2C(C(=O)O)=C(S[C@@H]3CN[C@H](C(=O)N(C)C)C3)[C@H](C)[C@H]12 [Meropenem, reference compound]
0.25 µg/mL: MIC (Proteus mirabilis; read-out: Meropenem MIC, isolate ESDY-17 (VIM, CMY))
0.5 µg/mL: MIC (Klebsiella pneumoniae; read-out: Meropenem MIC, isolate TZAN-59 (β-lactamase: None))
1 µg/mL: MIC (Enterobacter gergoviae; read-out: Meropenem MIC, isolate AK-5240 (VIM, CMY)) | MIC (Escherichia coli; read-out: Meropenem MIC, isolate TZAN-116 (VIM))
8 µg/mL: MIC (Klebsiella pneumoniae; read-out: Meropenem MIC, isolate ALX-47 (OXA-48,CTX-M)) | MIC (Klebsiella pneumoniae; read-out: Meropenem MIC, isolate EY-20S (CMY, SHV)) | MIC (Klebsiella pneumoniae; read-out: Meropenem MIC, isolate LA-27 (NDM, CTXM)) | MIC (Klebsiella pneumoniae; read-out: Meropenem MIC, isolate LAR-2873 (VIM-12))
32 µg/mL: MIC (Klebsiella pneumoniae; read-out: Meropenem MIC, Kpn ESDY 5742 (IMP-1)) | MIC (Klebsiella pneumoniae; read-out: Meropenem MIC, Kpn LA 26 (NDM-1)) | MIC (Klebsiella pneumoniae; read-out: Meropenem MIC, isolate IT-17829 (CTXM, SHV)) | MIC (Klebsiella pneumoniae; read-out: Meropenem MIC, isolate LA-26 (NDM)) | MIC (Klebsiella pneumoniae; read-out: Meropenem MIC, isolate SEC-4 (VIM)) | MIC (Acinetobacter baumannii; read-out: Meropenem MIC, isolate TZAN-42 (VIM, OXA-58)) | MIC (Proteus mirabilis; read-out: Meropenem MIC, isolate ALX-13 (VIM, VEB))
~100%: drug hydrolyzed [1]
2 µg/mL: MIC (Enterobacter gergoviae; read-out: Meropenem MIC, isolate AK-5227 (VIM, CMY)) | MIC (Escherichia coli; read-out: Meropenem MIC, isolate TZAN-541 (VIM)) | MIC (Proteus mirabilis; read-out: Meropenem MIC, isolate ESDY-15184 (VIM, CMY)) | MIC (Providencia stuartii; read-out: Meropenem MIC, isolate ALX- 21 (VIM, VEB)) | MIC (Providencia stuartii; read-out: Meropenem MIC, isolate ALX-27 (VIM)) | MIC (Providencia stuartii; read-out: Meropenem MIC, isolate ESDY-4563 (VIM, VEB))
256 µg/mL: MIC (Klebsiella pneumoniae; read-out: Meropenem MIC, Kpn LA 34 (VIM-1 CMY)) | MIC (Klebsiella pneumoniae; read-out: Meropenem MIC, Kpn LA 109/16 (VIM-1)) | MIC (Klebsiella pneumoniae; read-out: Meropenem MIC, isolate LA-34 (VIM, CMY), first entry of Table 3) | MIC (Serratia marcescens)
4 µg/mL: MIC (Acinetobacter baumannii; read-out: Meropenem MIC, isolate TZAN-40 (VIM, OXA-58)) | MIC (Proteus mirabilis; read-out: Meropenem MIC, isolate ESDY-15315 (VIM, CMY)) | MIC (Providencia stuartii; read-out: Meropenem MIC, isolate ESDY-4559 (VIM))
16 µg/mL: MIC (Klebsiella pneumoniae; read-out: Meropenem MIC, Kpn LA419/16 (NDM-1)) | MIC (Klebsiella pneumoniae; read-out: Meropenem MIC, isolate ESDY-5742 (IMP)) | MIC (Klebsiella pneumoniae; read-out: Meropenem MIC, isolate LA-419/16 (NDM,CTXM)) | MIC (Klebsiella pneumoniae; read-out: Meropenem MIC, isolate LAR-38I/15 (VIM, NDM, CTXM)) | MIC (Proteus mirabilis; read-out: Meropenem MIC, Table 5, Pr m ESDY 15315 (VIM-1, CMY))
64 µg/mL: MIC (Klebsiella pneumoniae; read-out: Meropenem MIC, Kpn LA 82/16 (VIM-1)) | MIC (Klebsiella pneumoniae; read-out: Meropenem MIC, isolate ESDY-1780 (VIM, KPC)) | MIC (Klebsiella pneumoniae; read-out: Meropenem MIC, isolate L078/11 (KPC)) | MIC (Klebsiella pneumoniae; read-out: Meropenem MIC, isolate LA-28 (NDM, CTXM)) | MIC (Klebsiella pneumoniae; read-out: Meropenem MIC, isolate LA-34 (VIM, CMY), second entry of Table 3) | MIC (Klebsiella pneumoniae; read-out: Meropenem MIC, isolate LA-82/16 (VIM, SHV)) | MIC (Klebsiella pneumoniae; read-out: Meropenem MIC, isolate LAR-26I/15 (NDM, VIM, CTXM)) | MIC (Klebsiella pneumoniae; read-out: Meropenem MIC, isolate LAR-40II/15 (KPC)) | MIC (Klebsiella pneumoniae; read-out: Meropenem MIC, isolate SEC-2 (VIM)) | MIC (Klebsiella pneumoniae; read-out: Meropenem MIC, isolate UoA 12/227 (VIM)) | MIC (Klebsiella pneumoniae; read-out: Meropenem MIC, isolate UoA 1995 (VIM))
unable to protect any mice from death: protection from death [2]
